Key:
[1] = molecular target: Phosphatidylinositol 4-phosphate 5-kinase type-1 alpha (Homo sapiens) (UniProt Q99755); conditions: Compound concentration 1000.0 nM
[2] = molecular target: Receptor tyrosine-protein kinase erbB-3 (Homo sapiens) (UniProt P21860); conditions: Compound concentration 1000.0 nM
[3] = molecular target: GABA-A receptor; anion channel (Rattus norvegicus) (UniProt O09028+P15431+P18506+P18508+P19969+P20236+P23574+P23576+P28471+P28473+P30191+P62813+P63079+P63138+Q91ZM7+Q9ES14); conditions: Compound concentration 10.0 uM
[4] = molecular target: NUAK family SNF1-like kinase 1 (Homo sapiens) (UniProt O60285); conditions: Compound concentration 1000.0 nM
[5] = molecular target: Mitogen-activated protein kinase kinase kinase kinase 1 (Homo sapiens) (UniProt Q92918); conditions: Compound concentration 1000.0 nM
[6] = molecular target: Serine/threonine-protein kinase DCLK1 (Homo sapiens) (UniProt O15075); conditions: Compound concentration 1000.0 nM
[7] = system: Phosphatidylinositol 4,5-bisphosphate 3-kinase catalytic subunit alpha isoform (Homo sapiens), P42336 [C420R]; conditions: Compound concentration 1000.0 nM
[8] = molecular target: Death-associated protein kinase 3 (Homo sapiens) (UniProt O43293); conditions: Compound concentration 1000.0 nM
[9] = molecular target: Serine/threonine-protein kinase Nek9 (Homo sapiens) (UniProt Q8TD19); conditions: Compound concentration 1000.0 nM
[10] = molecular target: Serine/threonine-protein kinase ULK2 (Homo sapiens) (UniProt Q8IYT8); conditions: Compound concentration 1000.0 nM
[11] = molecular target: Casein kinase I isoform alpha-like (Homo sapiens) (UniProt Q8N752); conditions: Compound concentration 1000.0 nM
Sequence of Casein kinase I isoform alpha-like (Homo sapiens) (Q8N752 whole entry, canonical isoform): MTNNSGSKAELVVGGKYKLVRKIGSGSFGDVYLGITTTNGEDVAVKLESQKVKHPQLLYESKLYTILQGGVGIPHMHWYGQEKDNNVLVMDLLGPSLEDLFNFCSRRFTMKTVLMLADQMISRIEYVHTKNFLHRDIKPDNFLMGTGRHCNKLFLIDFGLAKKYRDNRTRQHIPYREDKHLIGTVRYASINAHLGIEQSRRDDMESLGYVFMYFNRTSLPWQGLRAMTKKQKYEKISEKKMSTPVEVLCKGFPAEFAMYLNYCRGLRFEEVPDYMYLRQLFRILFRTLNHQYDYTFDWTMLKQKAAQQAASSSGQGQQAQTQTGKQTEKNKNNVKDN

[12] = molecular target: Phosphatidylinositol 4-kinase beta (Homo sapiens) (UniProt Q9UBF8); conditions: Compound concentration 1000.0 nM
[13] = molecular target: Serine/threonine-protein kinase 17A (Homo sapiens) (UniProt Q9UEE5); conditions: Compound concentration 1000.0 nM
Sequence of Serine/threonine-protein kinase 17A (Homo sapiens) (Q9UEE5 whole entry): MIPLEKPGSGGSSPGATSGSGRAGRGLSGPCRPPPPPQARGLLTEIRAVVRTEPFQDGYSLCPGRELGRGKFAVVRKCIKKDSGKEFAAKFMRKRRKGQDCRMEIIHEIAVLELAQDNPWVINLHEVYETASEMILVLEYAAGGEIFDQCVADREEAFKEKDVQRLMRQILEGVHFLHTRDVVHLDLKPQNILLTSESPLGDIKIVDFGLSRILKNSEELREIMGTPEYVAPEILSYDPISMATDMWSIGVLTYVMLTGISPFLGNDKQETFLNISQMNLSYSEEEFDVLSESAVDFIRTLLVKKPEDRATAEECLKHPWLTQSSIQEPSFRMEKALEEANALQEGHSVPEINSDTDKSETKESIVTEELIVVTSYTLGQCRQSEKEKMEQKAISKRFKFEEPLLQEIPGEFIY

[14] = molecular target: Serine/threonine-protein kinase ICK (Homo sapiens) (UniProt Q9UPZ9); conditions: Compound concentration 1000.0 nM
[15] = molecular target: Ankyrin repeat and protein kinase domain-containing protein 1 (Homo sapiens) (UniProt Q8NFD2); conditions: Compound concentration 1000.0 nM
[16] = molecular target: Casein kinase I isoform gamma-3 (Homo sapiens) (UniProt Q9Y6M4); conditions: Compound concentration 1000.0 nM
[17] = molecular target: Serine/threonine-protein kinase Nek11 (Homo sapiens) (UniProt Q8NG66); conditions: Compound concentration 1000.0 nM
[18] = molecular target: Serine/threonine-protein kinase Nek4 (Homo sapiens) (UniProt P51957); conditions: Compound concentration 1000.0 nM
[19] = molecular target: D(1A) dopamine receptor (Homo sapiens) (UniProt P21728); conditions: Compound concentration 10.0 uM
[20] = molecular target: Fibroblast growth factor receptor 4 (Homo sapiens) (UniProt P22455); conditions: Compound concentration 1000.0 nM
[21] = molecular target: Mitogen-activated protein kinase 10 (Homo sapiens) (UniProt P53779); conditions: Compound concentration 1000.0 nM
[22] = molecular target: Phosphatidylinositol 4,5-bisphosphate 3-kinase catalytic subunit alpha isoform (Homo sapiens) (UniProt P42336); conditions: Compound concentration 1000.0 nM
[23] = molecular target: Receptor-type tyrosine-protein kinase FLT3 (Homo sapiens) (UniProt P36888); conditions: Compound concentration 1000.0 nM
[24] = system: Epidermal growth factor receptor (Homo sapiens), P00533 [UNDEFINED MUTATION]; conditions: Compound concentration 1000.0 nM
[25] = molecular target: Ephrin type-B receptor 4 (Homo sapiens) (UniProt P54760); conditions: Compound concentration 1000.0 nM
[26] = molecular target: Serine/threonine-protein kinase/endoribonuclease IRE1 (Homo sapiens) (UniProt O75460); conditions: Compound concentration 1000.0 nM
Sequence of Serine/threonine-protein kinase/endoribonuclease IRE1 (Homo sapiens) (O75460 19-977 limits assumed): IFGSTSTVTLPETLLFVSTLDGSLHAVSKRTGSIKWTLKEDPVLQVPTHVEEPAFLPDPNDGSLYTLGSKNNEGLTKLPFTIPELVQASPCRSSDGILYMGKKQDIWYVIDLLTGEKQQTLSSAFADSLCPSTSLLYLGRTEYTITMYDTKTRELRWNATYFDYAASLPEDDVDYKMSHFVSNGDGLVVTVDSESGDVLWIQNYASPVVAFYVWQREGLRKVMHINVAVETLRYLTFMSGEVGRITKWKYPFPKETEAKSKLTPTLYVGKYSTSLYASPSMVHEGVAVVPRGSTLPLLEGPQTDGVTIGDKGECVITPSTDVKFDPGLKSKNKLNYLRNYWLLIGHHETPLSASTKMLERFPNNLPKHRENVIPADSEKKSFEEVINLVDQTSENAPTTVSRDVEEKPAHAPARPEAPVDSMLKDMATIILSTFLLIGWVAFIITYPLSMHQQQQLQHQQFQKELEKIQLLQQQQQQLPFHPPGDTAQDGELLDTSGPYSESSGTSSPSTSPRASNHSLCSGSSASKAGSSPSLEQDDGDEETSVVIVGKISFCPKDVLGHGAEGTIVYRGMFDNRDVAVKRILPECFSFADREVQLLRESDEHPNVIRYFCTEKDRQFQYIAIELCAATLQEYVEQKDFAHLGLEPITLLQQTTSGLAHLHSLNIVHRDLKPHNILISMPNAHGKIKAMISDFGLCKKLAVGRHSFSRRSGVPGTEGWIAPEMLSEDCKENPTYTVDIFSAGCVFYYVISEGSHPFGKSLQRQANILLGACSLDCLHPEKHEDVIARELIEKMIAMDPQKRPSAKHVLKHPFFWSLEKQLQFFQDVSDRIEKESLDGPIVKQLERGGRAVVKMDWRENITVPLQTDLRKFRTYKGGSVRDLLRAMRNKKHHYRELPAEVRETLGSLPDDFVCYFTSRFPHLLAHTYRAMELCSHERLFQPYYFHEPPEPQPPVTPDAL

[27] = molecular target: Mast/stem cell growth factor receptor Kit (Homo sapiens) (UniProt P10721); conditions: Compound concentration 1000.0 nM
[28] = molecular target: Phosphatidylinositol 4-phosphate 3-kinase C2 domain-containing subunit beta (Homo sapiens) (UniProt O00750); conditions: Compound concentration 1000.0 nM
[29] = molecular target: 5-hydroxytryptamine receptor 2B (Homo sapiens) (UniProt P41595); conditions: Compound concentration 10.0 uM
[30] = molecular target: Dual specificity mitogen-activated protein kinase kinase 1 (Homo sapiens) (UniProt Q02750); conditions: Compound concentration 1000.0 nM
Sequence of Dual specificity mitogen-activated protein kinase kinase 1 (Homo sapiens) (Q02750 whole entry, canonical isoform): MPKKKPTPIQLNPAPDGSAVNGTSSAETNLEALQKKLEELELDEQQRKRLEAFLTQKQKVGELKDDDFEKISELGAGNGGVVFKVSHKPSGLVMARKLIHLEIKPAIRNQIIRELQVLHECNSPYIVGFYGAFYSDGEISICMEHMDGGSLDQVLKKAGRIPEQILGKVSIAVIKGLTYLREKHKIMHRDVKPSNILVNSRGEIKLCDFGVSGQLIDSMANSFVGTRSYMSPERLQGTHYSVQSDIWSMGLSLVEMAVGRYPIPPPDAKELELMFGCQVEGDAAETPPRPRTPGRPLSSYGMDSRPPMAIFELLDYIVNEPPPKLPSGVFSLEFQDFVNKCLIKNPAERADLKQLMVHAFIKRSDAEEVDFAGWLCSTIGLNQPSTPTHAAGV

[31] = system: Phosphatidylinositol 4,5-bisphosphate 3-kinase catalytic subunit alpha isoform (Homo sapiens), P42336 [I800L]; conditions: Compound concentration 1000.0 nM
[32] = molecular target: Alpha-1B adrenergic receptor (Homo sapiens) (UniProt P35368); conditions: Compound concentration 10.0 uM
Sequence of Alpha-1B adrenergic receptor (Homo sapiens) (P35368 whole entry): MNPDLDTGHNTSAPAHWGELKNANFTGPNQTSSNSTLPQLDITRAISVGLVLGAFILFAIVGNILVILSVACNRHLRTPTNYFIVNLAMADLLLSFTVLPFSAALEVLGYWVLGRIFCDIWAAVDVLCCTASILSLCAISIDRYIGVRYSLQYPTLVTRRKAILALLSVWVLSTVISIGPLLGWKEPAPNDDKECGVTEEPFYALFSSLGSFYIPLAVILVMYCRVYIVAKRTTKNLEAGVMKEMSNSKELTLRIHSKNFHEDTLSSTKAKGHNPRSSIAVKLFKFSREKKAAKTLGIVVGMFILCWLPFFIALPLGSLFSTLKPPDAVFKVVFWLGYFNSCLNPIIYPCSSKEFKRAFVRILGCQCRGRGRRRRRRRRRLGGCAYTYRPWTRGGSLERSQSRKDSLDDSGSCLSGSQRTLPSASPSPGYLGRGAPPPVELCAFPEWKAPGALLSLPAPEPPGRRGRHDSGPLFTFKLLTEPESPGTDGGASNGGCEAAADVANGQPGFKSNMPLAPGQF

[33] = molecular target: Serine/threonine-protein kinase MRCK beta (Homo sapiens) (UniProt Q9Y5S2); conditions: Compound concentration 1000.0 nM
[34] = molecular target: Bone morphogenetic protein receptor type-1A (Homo sapiens) (UniProt P36894); conditions: Compound concentration 1000.0 nM
[35] = molecular target: Atypical kinase COQ8B, mitochondrial (Homo sapiens) (UniProt Q96D53); conditions: Compound concentration 1000.0 nM
[36] = molecular target: Serine/threonine-protein kinase 35 (Homo sapiens) (UniProt Q8TDR2); conditions: Compound concentration 1000.0 nM
[37] = system: Receptor-type tyrosine-protein kinase FLT3 (Homo sapiens), P36888 [K663Q]; conditions: Compound concentration 1000.0 nM
[38] = molecular target: Alpha-1D adrenergic receptor (Homo sapiens) (UniProt P25100); conditions: Compound concentration 10.0 uM
[39] = molecular target: Focal adhesion kinase 1 (Homo sapiens) (UniProt Q05397); conditions: Compound concentration 1000.0 nM
[40] = system: Receptor-type tyrosine-protein kinase FLT3 (Homo sapiens), P36888 [D835H]; conditions: Compound concentration 1000.0 nM
[41] = molecular target: STE20/SPS1-related proline-alanine-rich protein kinase (Homo sapiens) (UniProt Q9UEW8); conditions: Compound concentration 1000.0 nM
[42] = molecular target: Mitogen-activated protein kinase 9 (Homo sapiens) (UniProt P45984); conditions: Compound concentration 1000.0 nM
[43] = molecular target: Ephrin type-A receptor 6 (Homo sapiens) (UniProt Q9UF33); conditions: Compound concentration 1000.0 nM
Sequence of Ephrin type-A receptor 6 (Homo sapiens) (Q9UF33 whole entry): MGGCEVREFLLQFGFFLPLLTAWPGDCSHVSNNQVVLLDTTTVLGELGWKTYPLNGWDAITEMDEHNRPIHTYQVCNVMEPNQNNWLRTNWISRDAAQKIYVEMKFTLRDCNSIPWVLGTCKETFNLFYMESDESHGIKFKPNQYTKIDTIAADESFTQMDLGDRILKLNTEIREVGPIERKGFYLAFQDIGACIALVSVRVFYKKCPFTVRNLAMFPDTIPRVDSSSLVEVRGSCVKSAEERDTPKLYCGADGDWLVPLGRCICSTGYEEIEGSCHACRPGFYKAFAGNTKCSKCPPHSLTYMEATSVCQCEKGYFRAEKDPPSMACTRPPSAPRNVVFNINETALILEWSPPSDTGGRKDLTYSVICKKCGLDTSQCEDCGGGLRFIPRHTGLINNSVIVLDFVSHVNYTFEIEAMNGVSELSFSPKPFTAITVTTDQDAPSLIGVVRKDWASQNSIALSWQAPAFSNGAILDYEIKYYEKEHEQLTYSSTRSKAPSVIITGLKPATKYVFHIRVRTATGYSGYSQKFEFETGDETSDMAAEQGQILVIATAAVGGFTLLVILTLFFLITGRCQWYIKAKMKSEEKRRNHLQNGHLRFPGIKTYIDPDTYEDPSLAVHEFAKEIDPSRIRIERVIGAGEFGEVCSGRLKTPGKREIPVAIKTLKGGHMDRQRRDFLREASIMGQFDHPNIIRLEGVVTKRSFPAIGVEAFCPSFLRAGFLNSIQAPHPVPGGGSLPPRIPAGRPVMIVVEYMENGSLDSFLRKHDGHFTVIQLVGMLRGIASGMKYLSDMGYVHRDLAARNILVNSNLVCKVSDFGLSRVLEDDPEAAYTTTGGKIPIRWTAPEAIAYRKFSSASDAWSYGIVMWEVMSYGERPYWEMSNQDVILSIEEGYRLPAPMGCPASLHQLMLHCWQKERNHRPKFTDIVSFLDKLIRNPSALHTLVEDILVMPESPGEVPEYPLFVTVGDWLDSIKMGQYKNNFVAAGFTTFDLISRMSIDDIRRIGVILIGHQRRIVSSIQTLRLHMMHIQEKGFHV

Sequence of Receptor tyrosine-protein kinase erbB-3 (Homo sapiens) (P21860 whole entry): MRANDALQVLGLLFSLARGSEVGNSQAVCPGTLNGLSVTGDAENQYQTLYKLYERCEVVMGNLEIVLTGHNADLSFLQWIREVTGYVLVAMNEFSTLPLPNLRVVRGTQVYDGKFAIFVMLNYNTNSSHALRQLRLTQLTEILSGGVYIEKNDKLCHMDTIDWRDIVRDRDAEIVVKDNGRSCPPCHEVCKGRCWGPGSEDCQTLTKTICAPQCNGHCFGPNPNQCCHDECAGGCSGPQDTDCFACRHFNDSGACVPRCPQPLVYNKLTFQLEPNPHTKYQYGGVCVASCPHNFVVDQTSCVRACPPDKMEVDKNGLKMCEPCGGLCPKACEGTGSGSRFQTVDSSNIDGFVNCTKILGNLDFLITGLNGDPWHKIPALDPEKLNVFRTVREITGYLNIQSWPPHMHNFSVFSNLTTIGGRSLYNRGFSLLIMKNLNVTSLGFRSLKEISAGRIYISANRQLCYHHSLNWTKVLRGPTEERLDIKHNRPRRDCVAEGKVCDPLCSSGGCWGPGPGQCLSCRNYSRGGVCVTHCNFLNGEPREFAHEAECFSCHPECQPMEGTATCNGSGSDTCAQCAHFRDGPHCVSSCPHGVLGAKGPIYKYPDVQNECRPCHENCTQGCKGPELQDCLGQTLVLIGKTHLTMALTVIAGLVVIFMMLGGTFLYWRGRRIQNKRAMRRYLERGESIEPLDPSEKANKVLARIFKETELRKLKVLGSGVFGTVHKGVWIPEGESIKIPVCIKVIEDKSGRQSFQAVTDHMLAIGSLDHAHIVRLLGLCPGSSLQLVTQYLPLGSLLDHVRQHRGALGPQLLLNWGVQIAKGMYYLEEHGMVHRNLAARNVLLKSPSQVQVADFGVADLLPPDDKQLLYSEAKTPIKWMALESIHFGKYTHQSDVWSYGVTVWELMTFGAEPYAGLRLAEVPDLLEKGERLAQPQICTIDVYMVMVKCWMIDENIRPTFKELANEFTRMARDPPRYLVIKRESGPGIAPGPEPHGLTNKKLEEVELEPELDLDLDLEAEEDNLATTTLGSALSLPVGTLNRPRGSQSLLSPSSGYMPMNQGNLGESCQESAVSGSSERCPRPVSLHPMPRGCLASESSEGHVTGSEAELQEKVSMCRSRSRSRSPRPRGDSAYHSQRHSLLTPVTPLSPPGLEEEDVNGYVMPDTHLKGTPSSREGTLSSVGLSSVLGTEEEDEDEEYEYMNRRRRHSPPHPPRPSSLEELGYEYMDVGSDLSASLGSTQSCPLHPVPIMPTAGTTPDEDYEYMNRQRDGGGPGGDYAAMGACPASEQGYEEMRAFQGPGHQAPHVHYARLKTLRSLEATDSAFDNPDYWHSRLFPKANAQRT

Cc1cc(-n2nc(Cc3cc(F)cc(C(F)(F)F)c3)nc2C)ccc1C(N)=O [TP-024]
residual activity [1]: 100% | residual activity [2]: 100% | inhibition [3]: 12.8% | residual activity [4]: 100% | residual activity [5]: 100% | residual activity [6]: 100% | residual activity [7]: 93% | residual activity [8]: 87% | residual activity [9]: 100% | residual activity [10]: 100% | residual activity [11]: 100% | residual activity [12]: 100% | residual activity [13]: 100% | residual activity [14]: 100% | residual activity [15]: 100% | residual activity [16]: 95% | residual activity [17]: 100% | residual activity [18]: 100% | inhibition [19]: -4.72% | residual activity [20]: 100% | residual activity [21]: 100% | residual activity [22]: 100% | residual activity [23]: 100% | residual activity [24]: 100% | residual activity [25]: 100% | residual activity [26]: 100% | residual activity [27]: 95% | residual activity [28]: 87% | inhibition [29]: -2.51% | residual activity [30]: 100% | residual activity [31]: 70% | inhibition [32]: 6.84% | residual activity [33]: 100% | residual activity [34]: 85% | residual activity [35]: 100% | residual activity [36]: 100% | residual activity [37]: 100% | inhibition [38]: 3.15% | residual activity [39]: 100% | residual activity [40]: 100% | residual activity [41]: 100% | residual activity [42]: 81% | residual activity [43]: 100%

Cc1nc(Cc2cccc(C(F)(F)F)c2)sc1-c1ccc(C(N)=O)nc1 [TP-024n]
residual activity [1]: 100% | residual activity [2]: 100% | inhibition [3]: 14.8% | residual activity [4]: 86% | residual activity [5]: 100% | residual activity [6]: 81% | residual activity [7]: 89% | residual activity [8]: 88% | residual activity [9]: 100% | residual activity [10]: 100% | residual activity [11]: 100% | residual activity [12]: 91% | residual activity [13]: 82% | residual activity [14]: 100% | residual activity [15]: 95% | residual activity [16]: 93% | residual activity [17]: 100% | residual activity [18]: 100% | inhibition [19]: -6.03% | residual activity [20]: 100% | residual activity [21]: 100% | residual activity [22]: 88% | residual activity [23]: 93% | residual activity [24]: 100% | residual activity [25]: 100% | residual activity [26]: 100% | residual activity [27]: 95% | residual activity [28]: 82% | inhibition [29]: 33.7% | residual activity [30]: 100% | residual activity [31]: 56% | inhibition [32]: 24.6% | residual activity [33]: 39% | residual activity [34]: 76% | residual activity [35]: 100% | residual activity [36]: 100% | residual activity [37]: 88% | inhibition [38]: -5.68% | residual activity [39]: 95% | residual activity [40]: 100% | residual activity [41]: 100% | residual activity [42]: 100% | residual activity [43]: 96%
